Assay results from the NIST ThermoML archive (doi:10.1016/j.jct.2012.09.003).

Experiments:
[1] = 298.15 K, 101.33 kPa, Liquid; for viscosity: Capillary tube (Ostwald / Ubbelohde) method; for speed of sound: Linear variable-path acoustic interferometer; for mass density: Vibrating tube method
[2] = cn = amount concentration of the nth substance listed, in mol/dm3; settings: 298.15 K, 101 kPa, Liquid; for viscosity: Capillary tube (Ostwald / Ubbelohde) method; for speed of sound: Linear variable-path acoustic interferometer; for mass density: Vibrating tube method

CC(=O)N(C)C [N,N-dimethylethanamide]
[1]
Settings	mass density [kg/m3]	speed of sound [m/s]	viscosity [mPa·s]
–	936.8	1458.5	0.923

C[S+](C)[O-] [dimethyl sulfoxide]
[1]
Settings	mass density [kg/m3]	speed of sound [m/s]	viscosity [mPa·s]
–	1096.02	1490.8	1.946

CN(C)C=O [dimethylformamide]
[1]
Settings	mass density [kg/m3]	speed of sound [m/s]	viscosity [mPa·s]
–	944.5	1451.7	0.794

CCCC[P+](CCCC)(CCCC)CCCC.F[B-](F)(F)F [tetrabutylphosphonium tetrafluoroborate] + CC(=O)N(C)C
[2]
Settings	mass density [kg/m3]	speed of sound [m/s]	viscosity [mPa·s]
c1 = 0.0053	937.22	1461.8	0.93
c1 = 0.0215	938.69	1473.5	0.949
c1 = 0.0377	940.34	1486.9	0.968
c1 = 0.0541	942.13	1501.6	0.987
c1 = 0.0705	944.01	1517.8	1.007
c1 = 0.0871	945.94	1536.3	1.028

CCCC[P+](CCCC)(CCCC)CCCC.F[B-](F)(F)F [tetrabutylphosphonium tetrafluoroborate] + CN(C)C=O
[2]
Settings	mass density [kg/m3]	speed of sound [m/s]	viscosity [mPa·s]
c1 = 0.0053	944.98	1455.6	0.802
c1 = 0.0213	946.61	1468.7	0.82
c1 = 0.0374	948.4	1483.2	0.837
c1 = 0.0536	950.34	1498.6	0.854
c1 = 0.0699	952.4	1515.4	0.871
c1 = 0.0729	–	–	0.889
c1 = 0.0863	954.5	1533.8	–

CCCC[P+](CCCC)(CCCC)CCCC.F[B-](F)(F)F [tetrabutylphosphonium tetrafluoroborate] + C[S+](C)[O-]
[2]
Settings	mass density [kg/m3]	speed of sound [m/s]	viscosity [mPa·s]
c1 = 0.0046	1096.05	1492.7	1.952
c1 = 0.0184	1096.4	1501.5	1.982
c1 = 0.0323	1097.02	1513.7	2.015
c1 = 0.0463	1097.84	1527.9	2.049
c1 = 0.0604	1098.83	1544.5	2.085
c1 = 0.0746	1099.98	1564.6	2.12
